Assay results as given in patent US8530471B2, “Therapeutic cyclopentane derivatives” (Allergan, Inc., priority 2008, dated 2013).

What was measured:
normotensive dogs = assay: Intraocular pressure (IOP) reduction in normotensive dogs; assay type: in vivo
Procedure: Compounds such as those described in the above are tested in vivo to measure its ability to reduce intraocular pressure. Compound A is tested in normotensive dogs.
Compound B is tested in normotensive dogs.

[1] = test system: laser-induced hypertensive monkeys; assay: Intraocular pressure (IOP) reduction in laser-induced hypertensive monkeys; assay type: in vivo
[2] = test system: lashes and adjacent hairs of patients; assay: Observation of lashes in glaucoma patients treated in only one eye; assay type: in vivo, human; conditions: glaucoma patient, unilateral treatment
Description: In the course of treating patients having glaucoma, treatment may only be appropriate in one eye. […] The lash appearance on the lids of the treated eyes would have appeared quite attractive if it represented a bilateral phenomenon. As a result of its asymmetric nature, the long lashes on one side could be construed as disturbing from a cosmetic standpoint. A systemic examination was preformed as a result of the asymmetric phenomenon. It soon became apparent that this altered appearance was not an isolated finding. […] Definite differences could be identified to varying degrees in the lashes and adjacent hairs of all patients who were taking the drug on a unilateral basis for longer than 6 months.
The changes in the lashes were apparent on gross inspection in several patients once attention was focused on the issue. In those with light colored hair and lashes, the differences were only seen easily with the aid of the high magnification and lighting capabilities of the slit lamp biomicroscope. In the course of glaucoma follow-up examination, attention is generally immediately focused on the eye itself. As a result of the high power magnification needed only one eye is seen at a time and the eye is seen at a high enough power that the lashes are not in focus. […]

Structure (SMILES) | intraocular pressure (IOP) change from baseline (normotensive dogs) | intraocular pressure (IOP) change from baseline [1] | lash appearance in treated eye versus non-treated eye [2]
CCCCCC(O)c1ccc([C@@H]2[C@@H](C/C=C\CCCC(=O)OCCO)[C@H](C#N)C[C@H]2O)cc1 (some centres unmarked) [Compound A] | decreases from baseline | decreases from baseline | –
CCCCCC(O)c1ccc([C@@H]2[C@@H](C/C=C\CCCC(=O)OCCN3CCOCC3)[C@H](C#N)C[C@H]2O)cc1 (some centres unmarked) [Compound B] | decreases from baseline | decreases from baseline | –
CCNC(=O)CCC/C=C\C[C@@H]1[C@@H](/C=C/[C@@H](O)CCc2ccccc2)[C@H](O)C[C@@H]1O [bimatoprost] | – | – | longer, thicker, and fuller in the treated eye than in the non-treated eye
